Results reported in ChEMBL document CHEMBL4138296, “Nonacidic Chemotype Possessing N-Acylated Piperidine Moiety as Potent Farnesoid X Receptor (FXR) Antagonists” (ACS Med Chem Lett, 2018).
Activity calls are given as the source filed them. The calls are words filed in the database; no cut-off is given here.

What was measured:
3T3-L1 = experiment: Antiadipogenic activity in mouse 3T3L1 cells assessed as reduction in intracellular lipid droplets after 6 days by Oil Red O staining based assay; format: functional, cell-based
[1] = target: T1, Peroxisome proliferator-activated receptor gamma (Homo sapiens) (UniProt P37231); experiment: Agonist activity at PPARgamma (unknown origin) at 1 uM by luciferase reporter gene assay
T1 sequence (whole entry): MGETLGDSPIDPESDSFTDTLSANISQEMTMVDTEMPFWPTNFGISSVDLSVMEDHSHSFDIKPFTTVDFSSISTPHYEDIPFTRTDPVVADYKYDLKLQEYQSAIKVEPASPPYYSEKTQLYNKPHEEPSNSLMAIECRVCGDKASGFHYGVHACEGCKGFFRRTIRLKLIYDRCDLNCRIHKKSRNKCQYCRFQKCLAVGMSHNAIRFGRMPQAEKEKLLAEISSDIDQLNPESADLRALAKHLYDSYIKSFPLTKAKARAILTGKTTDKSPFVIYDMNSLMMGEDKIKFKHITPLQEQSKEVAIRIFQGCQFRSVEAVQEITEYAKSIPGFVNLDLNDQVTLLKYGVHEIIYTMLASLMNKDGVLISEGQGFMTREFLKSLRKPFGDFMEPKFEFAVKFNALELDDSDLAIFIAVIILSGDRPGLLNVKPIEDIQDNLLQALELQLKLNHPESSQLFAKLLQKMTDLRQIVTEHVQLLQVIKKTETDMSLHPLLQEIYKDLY

[2] = target: T2, Peroxisome proliferator-activated receptor alpha (Homo sapiens) (UniProt Q07869); experiment: Antagonist activity at PPARalpha (unknown origin) assessed as inhibition of GW7647-induced response at 1 uM by luciferase reporter gene assay
T2 sequence (whole entry): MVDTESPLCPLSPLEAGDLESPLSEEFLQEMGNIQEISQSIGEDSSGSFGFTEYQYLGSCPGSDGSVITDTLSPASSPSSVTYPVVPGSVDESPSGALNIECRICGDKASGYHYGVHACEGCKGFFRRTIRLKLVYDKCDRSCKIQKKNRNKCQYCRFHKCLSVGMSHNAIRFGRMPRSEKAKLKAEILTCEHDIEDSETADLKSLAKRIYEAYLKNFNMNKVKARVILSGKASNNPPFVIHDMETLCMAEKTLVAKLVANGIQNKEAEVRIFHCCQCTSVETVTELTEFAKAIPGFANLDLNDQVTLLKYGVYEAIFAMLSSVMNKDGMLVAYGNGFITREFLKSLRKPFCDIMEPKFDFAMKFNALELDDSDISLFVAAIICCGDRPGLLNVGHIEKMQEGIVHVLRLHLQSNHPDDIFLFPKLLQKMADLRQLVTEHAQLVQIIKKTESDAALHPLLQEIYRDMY

[3] = target: T3, Oxysterols receptor LXR-alpha (Homo sapiens) (UniProt Q13133); experiment: Antagonist activity at LXRalpha (unknown origin) assessed as inhibition of TO901317-induced response at 1 uM by luciferase reporter gene assay
T3 sequence (whole entry): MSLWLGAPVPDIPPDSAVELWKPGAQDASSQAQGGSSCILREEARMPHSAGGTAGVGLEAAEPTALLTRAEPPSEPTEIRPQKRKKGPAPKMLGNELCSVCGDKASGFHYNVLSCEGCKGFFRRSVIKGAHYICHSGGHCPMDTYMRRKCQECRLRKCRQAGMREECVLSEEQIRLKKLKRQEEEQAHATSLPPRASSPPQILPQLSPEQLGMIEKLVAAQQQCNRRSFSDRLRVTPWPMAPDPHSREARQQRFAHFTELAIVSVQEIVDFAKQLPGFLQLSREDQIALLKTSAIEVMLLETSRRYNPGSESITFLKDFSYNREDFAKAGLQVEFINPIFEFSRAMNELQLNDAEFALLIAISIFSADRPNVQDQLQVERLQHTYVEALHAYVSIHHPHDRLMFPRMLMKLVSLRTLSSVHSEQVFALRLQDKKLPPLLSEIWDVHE

Bile acid receptor = target: T4, Bile acid receptor (Homo sapiens, UniProt Q96RI1); experiment: Antagonist activity at GST-tagged FXR LBD (unknown origin) assessed as inhibition of GW4064-induced fluorecein-labeled SRC2-2 coactivator recruitment by Lanthascreen TR-FRET assay
T4 sequence (Q96RI1 whole entry): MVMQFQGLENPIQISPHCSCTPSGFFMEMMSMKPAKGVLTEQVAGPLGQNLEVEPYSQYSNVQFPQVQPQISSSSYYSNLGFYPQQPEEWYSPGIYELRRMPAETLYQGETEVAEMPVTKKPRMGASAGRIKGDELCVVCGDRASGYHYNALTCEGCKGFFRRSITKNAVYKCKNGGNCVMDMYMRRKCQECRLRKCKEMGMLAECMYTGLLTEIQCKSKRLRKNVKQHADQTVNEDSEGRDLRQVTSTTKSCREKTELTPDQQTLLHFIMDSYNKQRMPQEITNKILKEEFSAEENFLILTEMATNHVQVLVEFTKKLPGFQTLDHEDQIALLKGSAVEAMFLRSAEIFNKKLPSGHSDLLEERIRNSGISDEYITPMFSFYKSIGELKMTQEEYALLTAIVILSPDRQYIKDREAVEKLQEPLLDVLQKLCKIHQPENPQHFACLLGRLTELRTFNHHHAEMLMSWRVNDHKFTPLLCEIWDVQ

[4] = target: T5, Retinoic acid receptor alpha (Homo sapiens) (UniProt P10276); experiment: Antagonist activity at RARalpha (unknown origin) assessed as inhibition of ATRA-induced response at 1 uM by luciferase reporter gene assay
T5 sequence (whole entry): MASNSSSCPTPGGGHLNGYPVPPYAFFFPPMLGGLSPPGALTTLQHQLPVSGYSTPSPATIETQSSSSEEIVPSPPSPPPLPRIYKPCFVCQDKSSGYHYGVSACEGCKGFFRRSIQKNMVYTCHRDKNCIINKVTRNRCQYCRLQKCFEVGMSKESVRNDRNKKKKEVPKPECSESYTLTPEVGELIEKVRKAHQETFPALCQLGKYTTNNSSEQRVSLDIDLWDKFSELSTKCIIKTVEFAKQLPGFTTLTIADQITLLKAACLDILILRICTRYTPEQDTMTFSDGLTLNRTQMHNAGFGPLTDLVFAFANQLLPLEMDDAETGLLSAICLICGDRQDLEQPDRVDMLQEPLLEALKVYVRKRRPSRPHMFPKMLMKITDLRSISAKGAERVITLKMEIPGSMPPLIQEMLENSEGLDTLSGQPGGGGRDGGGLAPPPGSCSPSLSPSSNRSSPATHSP

[5] = target: T2, Peroxisome proliferator-activated receptor alpha (Homo sapiens); experiment: Agonist activity at PPARalpha (unknown origin) at 1 uM by luciferase reporter gene assay

`Cc1ccc2nc([C@H](CC3CCN(C(=O)C(C)C)CC3)N3C(=O)CN(c4ccc(Oc5ccccc5)cc4)C3=O)n(C)c2c1` was tested, and the Activity (3T3-L1) was “Dose-dependent effect”, the Activity [1] was “inactive” and the inhibition [2] was “inactive”. The inhibition [3] was “inactive”, the IC50 (Bile acid receptor) was 35 nM and the inhibition [4] was “inactive”. The Activity [5] was “inactive”.
